The subject of the assay is Rattus norvegicus. Briefly: Antihyperglycemic activity in Streptozotocin-induced diabetic Wistar rat assessed as decrease in blood glucose level at 31 mg/kg, po after 7 hrs. In kind it is functional. Also on record: scale not given: the % may be the effect or the level left.

Molecules are shown by their SMILES.

On to `CC(=O)O[C@H]1CC[C@]2(C)[C@H]3CC=C4[C@@H]5CC(C)(C)CC[C@]5(C(=O)O)CC[C@@]4(C)[C@]3(C)CC[C@H]2C1(C)C` [ACETYL OLEANOLIC ACID], for which the Activity is on record as -26.3%.

(Values after ChEMBL document CHEMBL1158121, “Antihyperglycemic activity and chemical constituents of Eysenhardtia platycarpa” (2006).)
